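Method: 48-hour compound exposure of cells in 96-well plates, five concentrations, linear interpolation of endpoints. GI50 is the concentration that inhibits growth by half.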 Calls of active or inactive are those of the source. No stated cut-off is given here; in the data, active = GI50 up to about 1.1 µM and inactive = higher.
What was measured:
Test in all cases: DTP human tumour cell line panel, 48 h
[1] = test system: NCI-H23
[2] = test system: IGROV-1
[3] = test system: COLO 205
[4] = test system: SNB-75
[5] = test system: SK-MEL-28
[6] = test system: SK-MEL-5
[7] = test system: SF-268
[8] = test system: UACC-257
[9] = test system: T47D
[10] = test system: MCF7
[11] = test system: HCT-116
[12] = test system: SNB-19
[13] = test system: SN12C
[14] = test system: U-251
[15] = test system: HT-29
[16] = test system: KM12
[17] = test system: HOP-92
[18] = test system: EKVX
[19] = test system: RXF 393
[20] = test system: CAKI-1
[21] = test system: M14
[22] = test system: OVCAR-4
[23] = test system: Hs-578T
[24] = test system: K562
[25] = test system: LOX IMVI
[26] = test system: SF-295
[27] = test system: SW-620
[28] = test system: MDA-MB-435
[29] = test system: SK-MEL-2
[30] = test system: SR
[31] = test system: UO-31
[32] = test system: A549
[33] = test system: SF-539
[34] = test system: Malme-3M
[35] = test system: ACHN
[36] = test system: OVCAR-3
[37] = test system: 786-0
[38] = test system: NCI/ADR-RES
[39] = test system: MDA-MB-231
[40] = test system: MOLT-4
[41] = test system: HCT-15
[42] = test system: HOP-62
[43] = test system: NCI-H522
[44] = test system: UACC-62
[45] = test system: OVCAR-5
[46] = test system: SK-OV-3
[47] = test system: OVCAR-8
[48] = test system: NCI-H460
[49] = test system: NCI-H226
[50] = test system: PC-3
[51] = test system: RPMI-8226
[52] = test system: TK-10
[53] = test system: CCRF-CEM
[54] = test system: DU-145
[55] = test system: HL-60

Which results are given for `FC(F)(F)c1ccc(/N=C/C=C(/Nc2ccc(C(F)(F)F)cc2)c2ccc(Cl)cc2)cc1`?
GI50 [1]: 12.2 µM (inactive); GI50 [2]: 2.62 µM (inactive); GI50 [3]: 10.5 µM (inactive); GI50 [4]: 17.6 µM (inactive); GI50 [5]: 15.1 µM (inactive); GI50 [6]: 6.56 µM (inactive); GI50 [7]: 12.1 µM (inactive); GI50 [8]: 16.4 µM (inactive); GI50 [9]: 10.3 µM (inactive); GI50 [10]: 17.5 µM (inactive); GI50 [11]: 4.79 µM (inactive); GI50 [12]: 8.61 µM (inactive); GI50 [13]: 10.4 µM (inactive); GI50 [14]: 11.3 µM (inactive); GI50 [15]: 5.04 µM (inactive); GI50 [16]: 4.71 µM (inactive); GI50 [17]: 16.5 µM (inactive); GI50 [18]: 15.9 µM (inactive); GI50 [19]: 10.1 µM (inactive); GI50 [20]: 3.49 µM (inactive); GI50 [21]: 12.8 µM (inactive); GI50 [22]: 14 µM (inactive); GI50 [23]: 13 µM (inactive); GI50 [24]: 18.4 µM (inactive); GI50 [25]: 1.64 µM (inactive); GI50 [26]: 15.8 µM (inactive); GI50 [27]: 11 µM (inactive); GI50 [28]: 6.82 µM (inactive); GI50 [29]: 8.34 µM (inactive); GI50 [30]: 3.47 µM (inactive); GI50 [31]: 14.5 µM (inactive); GI50 [32]: 12.5 µM (inactive); GI50 [33]: 14.2 µM (inactive); GI50 [34]: 19.4 µM (inactive); GI50 [35]: 10.1 µM (inactive); GI50 [36]: 6.78 µM (inactive); GI50 [37]: 15.5 µM (inactive); GI50 [38]: 13.7 µM (inactive); GI50 [39]: 14.5 µM (inactive); GI50 [40]: 4.06 µM (inactive); GI50 [41]: 4.73 µM; GI50 [42]: 18.2 µM (inactive); GI50 [43]: 11.1 µM (inactive); GI50 [44]: 1.82 µM (inactive); GI50 [45]: 17.9 µM (inactive); GI50 [46]: 16.4 µM (inactive); GI50 [47]: 15.6 µM (inactive); GI50 [48]: 4.38 µM (inactive); GI50 [49]: 4.53 µM (inactive); GI50 [50]: 18 µM (inactive); GI50 [51]: 4.72 µM (inactive); GI50 [52]: 15.8 µM (inactive); GI50 [53]: 5.22 µM (inactive); GI50 [54]: 13.5 µM (inactive); GI50 [55]: 12.9 µM (inactive)
